These results are taken from patent publication US20240109905A1, “4-ALKOXY-6-OXO-PYRIDAZINE DERIVATIVES MODULATING NLRP3” (JANSSEN PHARMACEUTICA NV, priority 2021, published 2024).

Like-named read-outs stand apart in the source and are kept apart here. Bounds are passed on as bounds.

One test relates to TNF. Put plainly: PBMC assay: TNF cytokine level after LPS stimulation. The test is classed as cell-based. As to conditions: human PBMCs, 30 min compound, 100 ng/ml LPS for 6 hrs, MSD. As for the experimental part: (§1) Peripheral venous blood was collected from healthy individuals and human peripheral blood mononuclear cells (PBMCs) were isolated from blood by Ficoll-Histopaque (Sigma-Aldrich, A0561) density gradient centrifugation. After isolation, PBMCs were stored in liquid nitrogen for later use. Upon thawing, PBMC cell viability was determined in growth medium (RPMI media supplemented with 10% fetal bovine serum, 1% Pen-Strep and 1% L-glutamine). Compounds were spotted in a 1:3 serial dilution in DMSO and diluted to the final concentration in 30 μl medium in 96 well plates (Falcon, 353072). PBMCs were added at a density of 7.5×10^4 cells per well and incubated for 30 min in a 5% CO2 incubator at 37° C. LPS stimulation was performed by addition of 100 ng/ml LPS (final concentration, Invivogen, tlrl-smlps) for 6 hrs followed by collection of cellular supernatant and the analysis of IL-1β (μM) and TNF cytokines levels (μM) via MSD technology according to manufacturers' guidelines (MSD, K151A0H).
(§2) IC50 and AC50 values (for […]) and EC50 and AC50 values (TNF) were obtained on compounds of the invention/examples, and the AC50 values are depicted in the following table: […]

The next test has as its system IL-1β. As to the kind of experiment: PBMC assay: IL-1β release after LPS stimulation. Format: cell-based. The following applies: human PBMCs, 30 min compound, 100 ng/ml LPS for 6 hrs, MSD, read-out: IL1β AC50. As for the experimental part:
The activity of a compound according to the present invention can be assessed by in vitro methods.
as §1, §2

For `Cc1c(OCC(C)C)c(C(C)C)nn(CC(=O)Nc2ccc3nncn3c2)c1=O` [Compound 54, N-([1,2,4]triazolo[4,3-a]pyridin-6-yl)-2-(4-isobutoxy-3-isopropyl-5-methyl-6-oxopyridazin-1(6H)-yl)acetamide], the half-maximal activity concentration (AC50) (commonly the concentration at which the activity in the assay is half-maximal) with TNF (PBMC) amounted to 15600 nM; with IL-1β (PBMC) it was 100 nM.

For the compound `CC(C)c1nn(CC(=O)Nc2ccc3nncn3n2)c(=O)cc1OCC(C)(F)F` [Compound 56], the AC50 in the test on TNF (PBMC) is greater than 20000 nM; with IL-1β (PBMC), 130 nM.

For the compound `CC(C)c1nn(CC(=O)Nc2ccc3nncn3n2)c(=O)cc1OCC1(F)CC1` [Compound 57], the AC50 is greater than 20000 nM in the test with TNF (PBMC) and 140 nM in the test with IL-1β (PBMC).

As for `CC(C)COc1cc(=O)n(CC(=O)Nc2ccc3nncn3n2)nc1N(C)C` [Compound 58], the concentration at half-maximal activity (AC50) was greater than 10000 nM in the test on TNF (PBMC) and 150 nM in the test on IL-1β (PBMC).

Turning to `CC(C)COc1cc(=O)n(NC23CCC(O)(CC2)C3)nc1C(C)C` [Compound 59], the concentration at half-maximal activity (AC50) in the test on TNF was greater than 20000 nM; in the test with IL-1β it was 160 nM.

`CC(C)COc1c(C(C)C)nn(CC(=O)Nc2ccc3nncn3c2)c(=O)c1Cl` [Compound 60, N-([1,2,4]triazolo[4,3-a]pyridin-6-yl)-2-(5-chloro-4-isobutoxy-3-isopropyl-6-oxopyridazin-1(6H)-yl)acetamide]: the half-maximal activity concentration (AC50) in the test on TNF (PBMC) was greater than 20000 nM; in the test on IL-1β (PBMC), 160 nM.

As for `CC(C)COc1c(C(C)C)nn(CC(=O)Nc2ccc3nncn3c2)c(=O)c1F` [Compound 61], the AC50 in the test on TNF (PBMC) was greater than 20000 nM; with IL-1β (PBMC), 160 nM.

Consider `CC(C)COc1c(C(C)C)nn(CC(=O)Nc2ccc3nncn3n2)c(=O)c1C(F)F` [Compound 62], for which the figures for the AC50 in the test on TNF (PBMC) and in the test on IL-1β (PBMC) were 3750 nM and 180 nM, respectively.

On to `Cc1nccc(NC(=O)Cn2nc(C(C)C)c(OCC(C)C)cc2=O)c1F` [Compound 63], for which the AC50 in the test on TNF (PBMC) was greater than 20000 nM; in the test on IL-1β (PBMC), 190 nM.

Consider `CC(C)c1nn(CC(=O)Nc2ccc3nncn3c2)c(=O)cc1OCC1(F)CC1` [Compound 64], for which the figures for the AC50 in the test with TNF (PBMC) and with IL-1β (PBMC) were greater than 20000 nM and 200 nM, respectively.

Consider `Cc1cc(NC(=O)Cn2nc(C(C)C)c(OCC(C)C)cc2=O)ccn1` [Compound 65], for which the figures for the half-maximal activity concentration (AC50) with TNF (PBMC) and in the test on IL-1β (PBMC) were greater than 20000 nM and 210 nM, respectively.

Take `CC(C)COc1cc(=O)n(CC(=O)NC23CC(C#N)(C2)C3)nc1C(C)C` [Compound 66]: the AC50 was greater than 20000 nM in the test with TNF (PBMC) and 220 nM in the test with IL-1β (PBMC).

For `CC(C)COc1cc(=O)n(CC(=O)NC23CCC(C(=O)O)(CC2)CC3)nc1C(C)C` [Compound 67], the results for the AC50 in the test on TNF (PBMC) and in the test with IL-1β (PBMC) were greater than 20000 nM and 240 nM, respectively.

`Cc1c(OCC(C)C)c(C(C)C)nn(CC(=O)Nc2ccc3nccn3n2)c1=O` [Compound 68]: the concentration at half-maximal activity (AC50) in the test with TNF (PBMC) was greater than 20000 nM; in the test on IL-1β (PBMC), 240 nM.

Regarding `CC(C)COc1cc(=O)n(CC(=O)Nc2nc3ccc(F)cn3n2)nc1C(C)C` [Compound 69], the AC50 is greater than 20000 nM with TNF (PBMC) and 250 nM with IL-1β (PBMC).

As for `CC(C)COc1cc(=O)n(CC(=O)Nc2ccc3nncn3c2)nc1N(C)C` [Compound 70], the concentration at half-maximal activity (AC50) in the test on TNF (PBMC) is greater than 20000 nM; in the test with IL-1β (PBMC), 260 nM.

Take `COC(=O)CC12CC(NC(=O)Cn3nc(C(C)C)c(OCC(C)C)cc3=O)(C1)C2` [Compound 71, methyl 2-(3-(2-(4-isobutoxy-3-isopropyl-6-oxopyridazin-1(6H)-yl)acetamido)bicyclo[1.1.1]pentan-1-yl)acetate]: the half-maximal activity concentration (AC50) with TNF (PBMC) was greater than 20000 nM; in the test with IL-1β (PBMC) it was 260 nM.

With `CC(C)c1nn(CC(=O)Nc2ccc3nncn3n2)c(=O)c(Cl)c1OCC(F)(F)F` [Compound 72], the concentration at half-maximal activity (AC50) with TNF (PBMC) is 16600 nM; with IL-1β (PBMC), 270 nM.

As to `Cc1c(OCC(C)C)c(C(C)C)nn(CC(=O)Nc2ccncc2)c1=O` [Compound 73], the concentration at half-maximal activity (AC50) with TNF (PBMC) was greater than 20000 nM; in the test with IL-1β (PBMC), 330 nM.

`CC(C)c1nn(CC(=O)Nc2ccc3nncn3c2)c(=O)c(Cl)c1OCC1CC1` [Compound 74]: the AC50 in the test on TNF (PBMC) was greater than 20000 nM; with IL-1β (PBMC), 360 nM.

In the case of `CC(C)COc1cc(=O)n(CC(=O)NC23CCC(N)(CC2)C3)nc1C(C)C` [Compound 75, N-((1r,4r)-4-aminobicyclo[2.2.1]heptan-1-yl)-2-(4-isobutoxy-3-isopropyl-6-oxopyridazin-1(6H)-yl)acetamide], the values for the AC50 with TNF (PBMC) and with IL-1β (PBMC) were greater than 20000 nM and 360 nM, respectively.

Consider `CN(C)c1nn(CC(=O)Nc2ccc3nncn3n2)c(=O)cc1OCC1CC1` [Compound 76], for which the AC50 is greater than 20000 nM in the test with TNF (PBMC) and 370 nM in the test on IL-1β (PBMC).

Regarding `CC(C)COc1cc(=O)n(CC(=O)Nc2nc3ncccn3n2)nc1C(C)C` [Compound 77], the AC50 in the test on TNF (PBMC) is greater than 20000 nM; in the test with IL-1β (PBMC), 400 nM.

For the compound `CCCS(=O)(=O)C12CC(NC(=O)Cn3nc(C(C)C)c(OCC(C)C)cc3=O)(C1)C2` [Compound 78, 2-(4-isobutoxy-3-isopropyl-6-oxopyridazin-1(6H)-yl)-N-(3-(propylsulfonyl)bicyclo[1.1.1]pentan-1-yl)acetamide], the AC50 was greater than 20000 nM with TNF (PBMC) and 420 nM in the test on IL-1β (PBMC).

Regarding `CC(C)COc1cc(=O)n(CC(=O)NC23CC(CO)(C2)C3)nc1C(C)C` [Compound 79], the results for the AC50 with TNF (PBMC) and in the test with IL-1β (PBMC) were greater than 20000 nM and 430 nM, respectively.

Regarding `COc1ccn2nc(NC(=O)Cn3nc(C(C)C)c(OCC(C)C)cc3=O)nc2c1` [Compound 80], the AC50 with TNF was greater than 20000 nM; in the test with IL-1β it was 450 nM.

Take `CCN1CC[C@]12C[C@H](NC(=O)Cn1nc(C(C)C)c(OCC(C)C)cc1=O)C2` [Compound 81, N-((4s,6r)-1-ethyl-1-azaspiro[3.3]heptan-6-yl)-2-(4-isobutoxy-3-isopropyl-6-oxopyridazin-1(6H)-yl)acetamide]: the AC50 was greater than 20000 nM with TNF (PBMC) and 480 nM in the test on IL-1β (PBMC).

On to `CC(C)COc1cc(=O)n(CC(=O)NC23CC(O)(C2)C3)nc1C(C)C` [Compound 82], for which the values for the AC50 in the test on TNF (PBMC) and in the test on IL-1β (PBMC) were greater than 20000 nM and 500 nM, respectively.

Regarding `CC(C)COc1cc(=O)n(CC(=O)NC23CC(C(F)F)(C2)C3)nc1C(C)C` [Compound 83], the figures for the AC50 with TNF (PBMC) and with IL-1β (PBMC) were greater than 20000 nM and 510 nM, respectively.

Take `CCCOc1c(C(C)C)nn(CC(=O)Nc2ccc3nncn3c2)c(=O)c1Cl` [Compound 84]: the AC50 with TNF (PBMC) was determined as 19400 nM; with IL-1β (PBMC), 630 nM.

Take `CC(C)COc1cc(=O)n(CC(=O)NC23CC(C(C)(C)O)(C2)C3)nc1C(C)C` [Compound 85, N-(3-(2-hydroxypropan-2-yl)bicyclo[1.1.1]pentan-1-yl)-2-(4-isobutoxy-3-isopropyl-6-oxopyridazin-1(6H)-yl)acetamide]: the AC50 in the test on TNF (PBMC) was greater than 20000 nM; in the test with IL-1β (PBMC), 650 nM.

Take `CC(C)COc1cc(=O)n(CC(=O)NC23CCC(N)(C2)C3)nc1C(C)C` [Compound 86]: the half-maximal activity concentration (AC50) in the test on TNF (PBMC) is greater than 20000 nM; with IL-1β (PBMC), 660 nM.

Regarding `CC(C)COc1cc(=O)n(CC(=O)Nc2nc3cc(C(F)(F)F)ccn3n2)nc1C(C)C` [Compound 87], the concentration at half-maximal activity (AC50) in the test on TNF (PBMC) was greater than 20000 nM; in the test with IL-1β (PBMC) it was 660 nM.

Take `CC(C)COc1cc(=O)n(CC(=O)NC23CCC(O)(CC2)CC3)nc1C(C)C` [Compound 88]: the AC50 in the test with TNF (PBMC) was greater than 20000 nM; in the test on IL-1β (PBMC), 660 nM.

Turning to `CC(C)COc1cc(=O)n(CC(=O)N[C@H]2C[C@]3(CCN3C)C2)nc1C(C)C` [Compound 89, 2-(4-isobutoxy-3-isopropyl-6-oxopyridazin-1(6H)-yl)-N-((4s,6r)-1-methyl-1-azaspiro[3.3]heptan-6-yl)acetamide], the AC50 in the test with TNF (PBMC) is greater than 20000 nM; with IL-1β (PBMC), 670 nM.

For the compound `Cc1noc(C23CC(NC(=O)Cn4nc(C(C)C)c(OCC(C)C)cc4=O)(C2)C3)n1` [Compound 90, 2-(4-isobutoxy-3-isopropyl-6-oxopyridazin-1(6H)-yl)-N-(3-(3-methyl-1,2,4-oxadiazol-5-yl)bicyclo[1.1.1]pentan-1-yl)acetamide], the half-maximal activity concentration (AC50) is greater than 20000 nM with TNF (PBMC) and 680 nM in the test on IL-1β (PBMC).

As to `Cc1ccn2nc(NC(=O)Cn3nc(C(C)C)c(OCC(C)C)cc3=O)nc2c1` [Compound 91], the AC50 with TNF (PBMC) was greater than 20000 nM; in the test with IL-1β (PBMC) it was 690 nM.

For the compound `CC(C)COc1cc(=O)n(CC(=O)NC23CC(C)(C2)C3)nc1C(C)C` [Compound 92], the AC50 was greater than 20000 nM in the test on TNF (PBMC) and 710 nM in the test with IL-1β (PBMC).

For `CC(C)c1nn(CC(=O)Nc2ccc3nncn3c2)c(=O)c(Cl)c1OCC(C)(F)F` [Compound 93], the AC50 in the test with TNF (PBMC) was determined as 8920 nM; in the test with IL-1β (PBMC), 770 nM.

Regarding `CC(C)COc1cc(=O)n(CC(=O)NC23CC(N4CCOCC4)(C2)C3)nc1C(C)C` [Compound 94], the AC50 was greater than 20000 nM in the test on TNF (PBMC) and 780 nM in the test on IL-1β (PBMC).

Take `CN(C)c1nn(CC(=O)Nc2ccc3nncn3n2)c(=O)cc1OCC(F)(F)F` [Compound 95]: the AC50 in the test with TNF (PBMC) is 18200 nM; in the test on IL-1β (PBMC) it was 790 nM.

As to `CC(C)COc1cc(=O)n(CC(=O)NC2(CC(=O)O)CCCC2)nc1C(C)C` [Compound 96], the half-maximal activity concentration (AC50) was greater than 20000 nM with TNF and 870 nM in the test with IL-1β.

Regarding `CC(C)COc1cc(=O)n(CC(=O)Nc2cn3ccncc3n2)nc1C(C)C` [Compound 97], the concentration at half-maximal activity (AC50) came to 5010 nM in the test on TNF (PBMC) and 950 nM in the test with IL-1β (PBMC).
